According to the SangsterLogP compilation:

Test: method code SF-AS, from DOI: 10.1016/0045-6535(95)00342-8

SMILES	logP
CCOCCOC(=O)CSc1ccccc1	1.73
COCCOC(=O)CSc1ccccc1	1.02
CCOC(=O)CCSc1ccccc1	2.72
CCOC(=O)CSc1ccccc1	2.12
CC(C)OC(=O)CC(CSc1ccccc1)C(=O)OC(C)C (stereo not drawn)	3.95
COC(=O)CC(Sc1ccccc1)C(=O)OC (stereo not drawn)	1.42
COC(=O)CCSc1ccccc1	2.04
COC(=O)CC(CSc1ccccc1)C(=O)OC (stereo not drawn)	1.96
CCCCOC(=O)CSc1ccccc1	3.26
CC(C)OC(=O)CSc1ccccc1	2.53
CC(C)COC(=O)CSc1ccccc1	3.02
CCOC(=O)CC(Sc1ccccc1)C(=O)OCC (stereo not drawn)	2.6
CCOC(=O)CC(CSc1ccccc1)C(=O)OCC (stereo not drawn)	2.98
CCCOC(=O)CSc1ccccc1	2.69
COC(=O)CSc1ccccc1	1.5
CC(C)OC(=O)CC(Sc1ccccc1)C(=O)OC(C)C (stereo not drawn)	3.53
COC(=O)C(C)CSc1ccccc1 (stereo not drawn)	2.63
COC(=O)CC(C)Sc1ccccc1 (stereo not drawn)	2.61
